Measurements published in patent publication US5474898A, “Octopamine receptor” (The United States of America as represented by the …, priority 1994, dated 1995).
Where two headings read alike, the source gives them in different places.

Experiments:
[1] = target: T1, Drosophila octopamine receptor (Drosophila melanogaster, UniProt P22270); assay: Attenuation of forskolin-stimulated cAMP in CHO-K1 cells expressing the Drosophila octopamine receptor; type: cell-based
T1 construct: membranes or whole cells
T1 sequence (P22270 27-601): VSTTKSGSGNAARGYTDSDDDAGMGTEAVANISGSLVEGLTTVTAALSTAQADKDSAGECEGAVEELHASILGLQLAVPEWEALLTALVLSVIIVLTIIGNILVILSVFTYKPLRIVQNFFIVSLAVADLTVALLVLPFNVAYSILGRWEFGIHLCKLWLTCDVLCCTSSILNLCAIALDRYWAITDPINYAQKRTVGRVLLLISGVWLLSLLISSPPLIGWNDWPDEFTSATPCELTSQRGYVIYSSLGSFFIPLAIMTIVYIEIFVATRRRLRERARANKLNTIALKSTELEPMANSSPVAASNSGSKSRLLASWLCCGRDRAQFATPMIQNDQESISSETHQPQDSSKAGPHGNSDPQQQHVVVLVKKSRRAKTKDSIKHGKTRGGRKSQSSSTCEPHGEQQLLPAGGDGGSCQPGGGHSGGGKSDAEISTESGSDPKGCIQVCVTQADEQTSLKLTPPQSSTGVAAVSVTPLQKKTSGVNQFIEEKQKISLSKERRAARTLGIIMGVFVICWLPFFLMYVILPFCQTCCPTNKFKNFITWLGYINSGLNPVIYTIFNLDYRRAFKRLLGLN
Procedure: Transfected cells (3×10^5 cells per dish) were washed once with PBS and incubated in PBS containing 1 mM 3-isobutyl-1-methylxanthine (Sigma) at 37° C. for 20 min. Agonists, at the indicated final concentrations, were added to the cultures along with 10 μM forskolin (Sigma), and cultures were incubated at 37° C. for an additional 20 min. Incubations were terminated by the addition of 6% trichloroacetic acid. Trichloroacetic acid extracts were extracted four times with distilled water-saturated ether, and cMAP concentrations were determined using a cAMP radioimmunoassay kit (New England Nuclear). Data are expressed as percent forskolin-stimulated cAMP production. In the indicated experiments, cell cultures were incubated with Bordetella pertussis islet activating protein (200 ng/ml; list biological lab) at 37° C. for 18 hr in normal culture medium prior to the assay of cAMP. Solid and open squares represent data obtained with octopamine in transfected and control cells, respectively. Solid circles represent data with epinephrine in transfected cells. […] Data represent the average ±SEM of at least three separate experiments performed in duplicate.
(§1) Another aspect of the present invention relates to another drug screening method that identifies new compounds with biogenic amine (agonists) or antagonist activity for biogenic receptors by measuring adenylate cyclase concentrations in transfected CHO-K1 cells expressing octopamine receptors. In one embodiment, potential drugs are tested for their ability to attenuate forskolin-stimulated adenylate cyclase activity. Forskolin is added to control or octopamine receptor transfected CHO-K1 cells that stimulates increased intracellular cAMP levels in transfected cells over basal CHO-K1 levels. In the presence of forskolin, known concentrations of octopamine are added and the attenuation of forskolin stimulated cyclase AMP is calculated. A potential antagonist is determined by the competitive reversal of octopamine mediated attenuation of forskolin stimulated cyclic AMP accumulation when the drug is added to the assayed transfected cells.
Because of the pharmacological and structural similarities of the Drosophila receptor to mammalian […] receptors, the ability of octopamine to attenuate forskolin-stimulated adenylate cyclase activity was tested.

[2] = target: T1, Drosophila octopamine receptor; assay: [3H]yohimbine competition displacement binding to membranes of transfected CHO-K1 cells
Excerpt: (§2) In a binding assay provided herein, octopamine receptor genes isolated from a specific DNA library are inserted into a plasmid expression vector and used to transfect a Chinese hamster […] cell called CHO-K1 cells. These cells stably integrate the foreign DNA into the genome. Cells that express the insect octopamine receptor and process receptor into the mammalian cell membrane are cloned, expanded and frozen down for further use as membrane preparations in a ligand binding assay. […] After the incubations are terminated, the reaction mixture containing labeled ligand bound to receptor membranes is calculated by measuring label.
(§3) Cell membranes from transfected cells were prepared as previously described (F.-Z. Chung et al., J. Bol. Chem. 263:4052-4055 (1988); C. M. Fraser et al., Proc. Natl. Acad. Sci. USA 85:5478-5482 (1988), C. M. Fraser et al., J. Biol. Chem. 264:11754-11761 (1989), C. M. Fraser et al., Proc. Nat;. Acad. Sci. USA 85:5478-5482 (1989)).
Membrane bound octopamine receptors (20 μg of protein)
concentrations of the indicated agonists (0.1 μM to 2 mM) or
antagonists (10 nM to 200 μM). Incubations were performed at 37.degree
C. for 20 min in a final volume of 250 μl and terminated by filtration
over Whatman GF/C glass fiber filters. Experiments were repeated three
times in triplicate, and the average inhibition constants (± SD) were
caluclated using the LIGAND program of Munson and Rodbard (1980).

control CHO-K1 cells = assay: Attenuation of forskolin-stimulated cAMP in control CHO-K1 cells; type: cell-based, Chinese hamster; conditions: 10 μM forskolin (FIG. 4)
Procedure: (§4) Transfected cells (3×10^5 cells per dish) were washed once with PBS and incubated in PBS containing 1 mM 3-isobutyl-1-methylxanthine (Sigma) at 37° C. for 20 min. Agonists, at the indicated final concentrations, were added to the cultures along with 10 μM forskolin (Sigma), and cultures were incubated at 37° C. for an additional 20 min. Incubations were terminated by the addition of 6% trichloroacetic acid. Trichloroacetic acid extracts were extracted four times with distilled water-saturated ether, and cMAP concentrations were determined using a cAMP radioimmunoassay kit (New England Nuclear). Data are expressed as percent forskolin-stimulated cAMP production. […]
as §1, with “In one embodiment, potential drugs are tested for their ability to attenuate forskolin-stimulated adenylate cyclase activity. Forskolin is added to control or octopamine receptor transfected CHO-K1 cells that stimulates increased intracellular cAMP levels in transfected cells over basal CHO-K1 levels.” left out, “cells. […]” for “cells.”

Octampamine1 = conditions: locust neuromuscular preparation; data from Evans (1981/1982); cited from earlier work
Octapamine2 = conditions: locust neuromuscular preparation; data from Evans (1981/1982); cited from earlier work
Octopamine20 = conditions: locust neuromuscular preparation; data from Evans (1981/1982); cited from earlier work
[3] = target: T1, Drosophila octopamine receptor; assay: [3H]yohimbine saturation binding to membranes of transfected CHO-K1 cells
Excerpt: as §2, §3

[4] = tested on: control, untransfected CHO-K1 cells; assay: [3H]yohimbine binding to membranes of control, untransfected CHO-K1 cells; design: species or system Chinese hamster; conditions: untransfected CHO-K1 cell membranes
Excerpt: as §2, §3

adenylate cyclase = assay: Forskolin stimulation of intracellular cAMP in control or transfected CHO-K1 cells; conditions: Cricetulus griseus, CHO-K1, 20 min, read-out: increase in intracellular cAMP levels over basal values
Procedure: as §4
as §1, with “In one embodiment, potential drugs are tested for their ability to attenuate forskolin-stimulated adenylate cyclase activity. Forskolin is added to control or octopamine receptor transfected CHO-K1 cells that stimulates increased intracellular cAMP levels in transfected cells over basal CHO-K1 levels.” left out, “cells. […]” for “cells.”

[5] = displacement of 6 nM [3H]yohimbine, 37° C., 20 min, average ± SD, three times in triplicate, read-out: K1

For `NCC(O)c1ccc(O)cc1` (racemic) [Octopamine(±), Octopamine], the activity at 100 µM ([1]; CHO-K1, 20 min, 100 μM octopamine plus 10 μM forskolin, transfected cells, read-out: cAMP levels, % of those seen with forskolin alone) was 46%, the “ability to attenuate forskolin-stimulated cAMP levels after Bordetella pertussis islet activating protein” value ([1]; transfected cells pretreated with pertussis toxin 200 ng/ml, 18 hr) was “abolished” and the “attenuation of forskolin-stimulated cAMP levels” value ([1]; transfected cells, 10 μM forskolin (FIG. 4)) was “dose-dependent attenuation of forskolin-stimulated cAMP levels”. For the same molecule, the Ki ([2]; read-out: Ki) was 29 ± 6 µM and the “attenuation of forskolin-stimulated cAMP levels” value (control CHO-K1 cells) was “not observed in control cells”.

Molecule `CNCC(O)c1ccc(O)cc1` (racemic) [Synephrine(±), Synephrine] has a Ki [2] of 10.8 ± 2.5 µM.

In the case of `CN(C)CCCN1c2ccccc2Sc2ccc(Cl)cc21` [Chlorpromazine], the Ki [2] is given as 0.18 ± 0.06 µM and the EC50 (Octampamine1) is given as 0.026 µM.

For `Clc1cccc(Cl)c1N=C1NCCN1` [Clonidine], the Ki [2] is given as 21 ± 7 µM, the EC50 (Octapamine2) is given as 6.4 µM and the EC50 (Octampamine1) is given as 0.00068 µM.

In the case of `NCCc1ccc(O)c(O)c1` [Dopamine], the Ki [2, 5] is reported as over 1000 µM and the Ki ([2]; read-out: Ki) is reported as over 1000 µM.

In the case of `CNC[C@H](O)c1ccc(O)c(O)c1` [Epinephrine(-), Epinephrine], the “attenuation of forskolin-stimulated cAMP levels” value [1] is reported as “no effect on forskolin-stimulated cAMP levels”, the Ki [2] is reported as 139 ± 41 µM and the “attenuation of forskolin-stimulated cAMP levels” value (control CHO-K1 cells) is reported as “no effect on forskolin-stimulated cAMP levels”.

In the case of `CC(C)NCC(O)c1ccc(O)c(O)c1` (stereo not drawn) [Isoproterenol(-), Isoproterenol], the Ki [2, 5] is reported as over 1000 µM and the Ki ([2]; read-out: Ki) is reported as over 1000 µM.

In the case of `CCN(CC)CCNC(=O)c1cc(Cl)c(N)cc1OC` [Metoclopramide], the Ki ([2]; read-out: K1) is listed as 4.6 ± 1.4 µM, the EC50 (Octopamine20) is listed as 9.5 µM and the EC50 (Octapamine2) is listed as 1 µM. For the same molecule, the “EC50, Octampamine1” value (Octampamine1) was “No effect-10^-6”.

For `Cc1ccc(N(CC2=NCCN2)c2cccc(O)c2)cc1` [Phentolamine], the Ki ([2]; read-out: K1) is listed as 2.2 ± 0.7 µM and the EC50 (Octampamine1) is listed as 0.0019 µM.

Molecule `NCCc1c[nH]c2ccc(O)cc12` [Serotonin] has a Ki [2] of 75 ± 18 µM.

For `COC(=O)[C@@H]1[C@H]2C[C@H]3c4[nH]c5ccccc5c4CCN3C[C@@H]2CC[C@@H]1O` [Yohimbine], the “antagonism of octopamine-mediated attenuation of forskolin stimulated cAMP accumulation” value ([1]; transfected cells, 10 μM yohimbine (FIG. 4)) is given as “competitively antagonized” and the EC50 (Octampamine1) is given as 0.28 µM.

With `COC(=O)[C@@H]1[C@H]2C[C@H]3c4[nH]c5ccccc5c4CCN3C[C@@H]2CC[C@@H]1O` [[^3 H]yohimbine] the Kd [3] was 0.0062 µM, the Bmax ([3]; transfected cell membranes) was 1.75 pmol of receptor per mg of membrane protein and the specific radioligand binding [4] was “No specific radioligand binding was observed”.

Molecule `C=C[C@@]1(C)CC(=O)[C@]2(O)[C@@]3(C)[C@@H](O)CCC(C)(C)[C@@H]3[C@H](O)[C@H](OC(C)=O)[C@@]2(C)O1` [forskolin] has a fold induction at 10 µM (adenylate cyclase) of 35.
